The assay concerns the target T1, UCHL1 (Homo sapiens, UniProt P09936).
T1 construct: made in house; host or cells: HEK293T
T1 sequence (P09936 1-223): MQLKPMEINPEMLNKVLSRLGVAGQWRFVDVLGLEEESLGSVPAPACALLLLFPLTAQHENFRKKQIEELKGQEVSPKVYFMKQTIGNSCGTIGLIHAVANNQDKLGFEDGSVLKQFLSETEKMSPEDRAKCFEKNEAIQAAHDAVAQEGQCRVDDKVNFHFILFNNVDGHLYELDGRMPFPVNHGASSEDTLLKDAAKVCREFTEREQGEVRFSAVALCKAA
Briefly: UCHL1 biochemical IC50 assay (fluorescence polarisation). The conditions noted are these: 30 min enzyme/compound pre-incubation at room temp, read after 2 hr incubation, read-out: Activity range (UCHL1 biochemical IC50 assay). The source says: Biological Activity of Compounds of the Invention Abbreviations: TAMRA carboxytetramethylrhodamine PCR polymerase chain reaction PBS phosphate buffered saline EDTA ethylenediaminetetraacetic acid Tris 2-amino-2-(hydroxymethyl)-1,3-propanediol NP-40 Nonidet P-40, octylphenoxypolyethoxyethanol BSA bovine serum albumin In Vitro UCHL1 Inhibition Assay Expression and Purification of UCHL1
The UCHL1 construct was PCR amplified and cloned into a pFLAG-CMV-6a vector (Sigma-Aldrich) with an N-terminal FLAG tag. HEK293T cells were transfected with FLAG-UCHL1 using TransIT-LT1 transfection reagent (Mirus) according to the manufacturer's instructions. Cells were harvested 40 hours after transfection. Cells were washed once with PBS and scraped in lysis buffer (50 mM Tris, pH 7.5, 150 mM NaCl, 3 mM EDTA, 0.5% NP40, 10% glycerol, 5 mM beta-mercaptoethanol, protease inhibitors (complete mini, Roche) and phosphatase inhibitors (PhosSTOP mini, Roche). Lysates were incubated for 30 min on ice and centrifuged at 1200 rpm for 10 min at 4° C. Soluble supernatant was added to FLAG affinity resin (EZview Rad ANTI-FLAG M2 affinity gel, Sigma-Aldrich) equilibrated in low salt buffer (20 mM Tris, pH 7.5, 150 mM NaCl, 0.5 mM EDTA, 5 mM beta-mercaptoethanol) and incubated at 4° C. for 3 hours rotating. The resin was spun at 2000 rpm for 2 min and the supernatant was removed. The resin was washed two times with low salt buffer and one time with high salt buffer (20 mM Tris, pH 7.5, 500 mM NaCl, 0.5 mM EDTA, 5 mM beta-mercaptoethanol, protease inhibitors (complete mini, Roche) and phosphatase inhibitors (PhosSTOP mini, Roche). To elute the bound UCHL1, elution buffer (10 mM Tris, pH 7.5, 150 mM NaCl, 0.5 mM FDTA, 10% glycerol, 0.5% NP40, 5 mM beta-mercaptoethanol, 0.15 mg/ml 3×FLAG peptide (Sigma-Aldrich)) was added to the resin and incubated at 4° C. for 2.5 hours rotating. The resin was centrifuged at 4000 rpm for 30 seconds, and the supernatant containing purified FLAG-UCHL1 was removed and stored at −80° C.
UCHL1 Biochemical IC50 Assay
Dilution plates were prepared at 21 times the final concentration (2100 μM for a final concentration of 100 µM) in 50% DMSO in a 96-well polypropylene V-bottom plate (Greiner #651201). A typical 8-point dilution series to be 100, 30, 10, 3, 1, 0.3, 0.1, 0.03 μM final. Reactions were performed in duplicate in black 384 well plates (small volume, Greiner 784076) in a final reaction volume of 21 μl. Either 1 μl of 50% DMSO or diluted compound was added to the plate. UCHL1 was diluted in reaction buffer (20 mM Tris, pH 7.5, 100 mM NaCl, 0.05% Tween 20, 0.5 mg/ml BSA, 5 mM—beta mercaptoethanol) to the equivalent of 0.05 μl/well and 10 μl of diluted UCHL1 was added to the compound. Enzyme and compound were incubated for 30 min at room temp. Reactions were initiated by the addition of 50 nM of TAMRA labelled peptide linked to ubiquitin via an iso-peptide bond as fluorescence polarisation substrate. Reactions were read immediately after addition of substrate and following a 2 hr incubation at room temperature. Readings were performed on a Pherastar Plus (BMG Labtech). λ Excitation 540 nm; k Emission 590 nm.
Background: Polarisation of emitted light reports the rotation of a fluorescent probe.

By IC50 is commonly meant the concentration that inhibits the measured activity by half. On to `N#CN1CCC(C(=O)Nc2ccc(Cl)cn2)C1` (stereo not shown) [Example 25, N-(5-chloropyridin-2-yl)-1-cyano-pyrrolidine-3-carboxamide], for which the IC50 lay in the range of 10 to 30 µM. The figure for `Cc1ccc(NC(=O)C2CCN(C#N)C2)nc1` (stereo not shown) [Example 26, 1-cyano-N-(5-methylpyridin-2-yl)pyrrolidine-3-carboxamide] is 10 to 30 µM; for `COc1ccc(NC(=O)C2CCN(C#N)C2)nc1` (stereo not shown) [Example 27, 1-cyano-N-(5-methoxy-pyridin-2-yl)pyrrolidine 3-carboxamide] it is 10 to 30 µM; for `N#CN1CCC(C(=O)Nc2ccc(N3CCOCC3)cn2)C1` (stereo not shown) [Example 28, 1-cyano-N-(5-morpholino-pyridin-2-yl)pyrrolidine-3-carboxamide] it is 1 to 10 µM. The figure for `N#CN1CCC(C(=O)Nc2ccc(N3CCCCC3)cn2)C1` (stereo not shown) [Example 29, 1-cyano-N-(5-(piperidin-1-yl)pyridin-2-yl)pyrrolidine-3-carboxamide] is 1 to 10 µM; for `N#CN1CCC(C(=O)Nc2ccc(-n3ccnc3)cn2)C1` (stereo not shown) [Example 30, N-(5-(1H-imidazol-1-yl)pyridin-2-yl)-1-cyano-pyrrolidine-3-carboxamide] it is 10 to 30 µM. For `N#CN1CCC(C(=O)Nc2cc(-c3ccccc3)ccn2)C1` (stereo not shown) [Example 31, 1-cyano-N-(4-phenylpyridin-2-yl)pyrrolidine-3-carboxamide], the IC50 was in the range of 1 to 10 µM.

On to `N#CN1CCC(C(=O)Nc2ccc(-c3ccccn3)cn2)C1` (stereo not shown) [Example 32, N-([2,3′-bipyridin]-6′-yl)-1-cyano-pyrrolidine-3-carboxamide], for which the IC50 is 1 to 10 µM. Turning to `N#CN1CCC(C(=O)Nc2ccc(-c3cccnc3)cn2)C1` (stereo not shown) [Example 33, N-([3,3′-bipyridin]-6-yl)-1-cyano-pyrrolidine-3-carboxamide], the IC50 was 1 to 10 µM.

For the compound `N#CN1CCC(C(=O)Nc2ccc(-c3ccncc3)cn2)C1` (stereo not shown) [Example 34, N-([3,4′-bipyridin]-6-yl)-1-cyano-pyrrolidine-3-carboxamide], the IC50 lay in the range of 1 to 10 µM. In the case of `N#CN1CCC(C(=O)Nc2ccc(-c3ccccc3)nc2)C1` (stereo not shown) [Example 35, 1-cyano-N-(6-phenylpyridin-3-yl)pyrrolidine-3-carboxamide], the IC50 was in the range of 1 to 10 µM.

Turning to `N#CN1CCC(C(=O)Nc2ccc(-c3ccccc3)nn2)C1` (stereo not shown) [Example 36, 1-cyano-N-(6-phenyl-pyridazin-3-yl)pyrrolidine-3-carboxamide], the IC50 was in the range of 10 to 30 µM. Turning to `N#CN1CCC(C(=O)Nc2cnc(-c3ccccc3)nc2)C1` (stereo not shown) [Example 37, 1-cyano-N-(2-phenyl-pyrimidin-5-yl)pyrrolidine-3-carboxamide], the IC50 was in the range of 10 to 30 µM. The same measure for `N#CN1CCC(C(=O)Nc2ccc(C3CCCCC3)cn2)C1` (stereo not shown) [Example 38, 1-cyano-N-(5-cyclohexyl-pyridin-2-yl)pyrrolidine-3-carboxamide]: 1 to 10 µM; for `N#CN1CCC(C(=O)Nc2ccc3c(cnn3Cc3ccccc3)c2)C1` (stereo not shown) [Example 39, N-(1-benzyl-1H-indazol-5-yl)-1-cyano-pyrrolidine-3-carboxamide]: 10 to 30 µM. For the compound `CCCn1cnc2cc(NC(=O)C3CCN(C#N)C3)ccc21` (stereo not shown) [Example 40, 1-cyano-N-(1-propyl-1H-benzo[d]imidazol-5-yl)pyrrolidine-3-carboxamide], the IC50 is 1 to 10 µM. In the case of `N#CN1CC[C@H](C(=O)Nc2cn(-c3ccccc3)cn2)C1` [Example 41, (S)-1-cyano-N-(1-phenyl-1H-imidazol-4-yl)pyrrolidine-3-carboxamide], the half-maximal inhibitory concentration (IC50) was less than 1 µM. Turning to `N#CN1CC[C@H](C(=O)Nc2cc(-c3ccccc3)[nH]n2)C1` [Example 42, (S)-1-cyano-N-(5-phenyl-1H-pyrazol-3-yl)pyrrolidine-3-carboxamide], the IC50 is less than 1 µM.

`N#CN1CC[C@H](C(=O)Nc2cc(C3CCOCC3)[nH]n2)C1` [Example 43, (S)-1-cyano-N-(5-(tetrahydro-2H-pyran-4-yl)-1H-pyrazol-3-yl)pyrrolidine-3-carboxamide]: the IC50 was less than 1 µM. The figure for `N#CN1CC[C@H](C(=O)Nc2cn(-c3ccccc3)nn2)C1` [Example 44, (S)-1-cyano-N-(1-phenyl-1H-1,2,3-triazol-4-yl)pyrrolidine-3-carboxamide] is 1 to 10 µM; for `N#CN1CC[C@H](C(=O)Nc2ccn(-c3ccccc3)n2)C1` [Example 45, (S)-1-cyano-N-(1-phenyl-1H-pyrazol-3-yl)pyrrolidine-3-carboxamide] it is 10 to 30 µM; for `Cc1cccc2sc(NC(=O)[C@H]3CCN(C#N)C3)nc12` [Example 46, (S)-1-cyano-N (4-methylbenzo[d]thiazol-2-yl)pyrrolidine-3-carboxamide] it is 10 to 30 µM.

In the case of `Cc1cccc2nc(NC(=O)[C@H]3CCN(C#N)C3)sc12` [Example 47, (S)-1-cyano-N-(7-methylbenzo[d]thiazol-2-yl)-pyrrolidine-3-carboxamide], the IC50 was less than 1 µM.

With `N#CN1CC[C@H](C(=O)Nc2nc3c(Br)cccc3s2)C1` [Example 48, (S)-N-(4-bromobenzo[d]thiazol-2-yl)-1-cyano-pyrrolidine-3-carboxamide], the IC50 is 1 to 10 µM.

For the compound `N#CN1CC[C@H](C(=O)Nc2cn3ccccc3n2)C1` [Example 49, (S)-1-cyano-N-N-(imidazo[1,2-a]pyridin-2-yl)-pyrrolidine-3-carboxamide], the IC50 lay within 1 to 10 µM.

On to `N#CN1CC[C@H](C(=O)Nc2cn3ccc(Br)cc3n2)C1` [Example 50, (S)-N-(7-bromoimidazo[1,2-a]pyridin-2-yl)-1-cyano-pyrrolidine-3-carboxamide], for which the IC50 lay within 1 to 10 µM. Regarding `N#CN1CC[C@H](C(=O)Nc2cn3cc(Br)ccc3n2)C1` [Example 51, (S)-N-(6-bromoimidazo[1,2-a]pyridin-2-yl)-1-cyano-pyrrolidine-3-carboxamide], the IC50 was less than 1 µM.

Turning to `COc1ccnc(NC(=O)[C@H]2CCN(C#N)C2)c1` [Example 53, (S)-1-cyano-N-(4-methoxypyridin-2-yl)pyrrolidine-3-carboxamide], the half-inhibitory concentration (IC50) lay within 1 to 10 µM.

`N#CN1CC[C@H](C(=O)Nc2ccc(-c3ccccc3)cn2)C1` [Example 54, (S)-1-cyano-N-(5-phenylpyridin-2-yl)pyrrolidine-3-carboxamide]: the half-maximal inhibitory concentration (IC50) was 1 to 10 µM. With `N#CN1CC[C@H](C(=O)Nc2cccc(-c3ccccc3)n2)C1` [Example 55, (S)-1-cyano-N-(6-phenylpyridin-2-yl)pyrrolidine 3-carboxamide], the IC50 fell in the range of 1 to 10 µM. Regarding `N#CN1CC[C@H](C(=O)Nc2ccc3cccnc3n2)C1` [Example 56, (S)-1-cyano-N-(1,8-naphthyridin-2-yl)pyrrolidine-3-carboxamide], the half-inhibitory concentration (IC50) was in the range of 10 to 30 µM. As for `N#CN1CC[C@H](C(=O)Nc2ncc(Cc3ccccc3)s2)C1` [Example 57, (S)-N-(5-benzylthiazol-2-yl)-1-cyanopyrrolidine-3-carboxamide], the IC50 was less than 1 µM. The figure for `N#CN1CC[C@H](C(=O)Nc2ncc(C3CCOCC3)s2)C1` [Example 59, (S)-1-cyano-N-(5-(tetrahydro-2H-pyran-4-yl)thiazol-2-yl)pyrrolidine-3-carboxamide] is less than 1 µM; for `Cn1nc(NC(=O)[C@H]2CCN(C#N)C2)cc1-c1ccccc1` [Example 60, (S)-1-cyano-N-(1-methyl-5-phenyl-1H-pyrazol-3-yl)pyrrolidine-3-carboxamide] it is less than 1 µM.

Values taken from US11472798B2 (Mission Therapeutics Limited, priority 2014, dated 2022).
